Test results reported in patent US9758491B2, “Molecules having pesticidal utility, and intermediates, compositions, and processes, related thereto” (priority 2015, dated 2017).

Assays:
Type in all cases: in vivo
[1] = tested on: Beet Armyworm (Spodoptera exigua, LAPHEG); assay: Bioassay on Beet Armyworm (BAW), 128-well diet tray assay; settings: 168 h, 50 μg/cm^2 on artificial diet, second instar larvae, 25° C., five to seven days, average of eight wells, read-out: BAW rating, % Control (or Mortality)
Procedure: (§1) Certain molecules disclosed in this document were tested against BAW and CL using procedures described in the following examples. In the reporting of the results, the “BAW & CL Rating Table” was used (See Table Section).
Bioassays on BAW were conducted using a 128-well diet tray assay. One to five second instar BAW larvae were placed in each well (3 mL) of the diet tray that had been previously filled with 1 mL of artificial diet to which 50 μg/cm^2 of the test molecule (dissolved in 50 μL of 90:10 acetone-water mixture) had been applied (to each of eight wells) and then allowed to dry. Trays were covered with a clear self-adhesive cover, vented to allow gas exchange, and held at 25° C., 14:10 light-dark for five to seven days. Percent mortality was recorded for the larvae in each well; activity in the eight wells was then averaged. The results are indicated in the table entitled “Table ABC: Biological Results” (See Table Section).

[2] = tested on: Cabbage Looper (Trichoplusia ni, TRIPNI); assay: Bioassay on Cabbage Looper (CL), 128-well diet tray assay; settings: 168 h, 50 μg/cm^2 on artificial diet, second instar larvae, 25° C., five to seven days, average of eight wells, read-out: CL rating, % Control (or Mortality)
Procedure: as §1
Bioassays on CL were conducted using a 128-well diet tray assay. One to five second instar CL larvae were placed in each well (3 mL) of the diet tray that had been previously filled with 1 mL of artificial diet to which 50 μg/cm^2 of the test molecule (dissolved in 50 μL of 90:10 acetone-water mixture) had been applied (to each of eight wells) and then allowed to dry. Trays were covered with a clear self-adhesive cover, vented to allow gas exchange, and held at 25° C., 14:10 light-dark for five to seven days. Percent mortality was recorded for the larvae in each well; activity in the eight wells was then averaged. The results are indicated in the table entitled “Table ABC: Biological Results” (See Table Section).

[3] = tested on: Yellow Fever Mosquito (Aedes aegypti, AEDSAE); assay: Bioassay on Yellow Fever Mosquito (YFM) larvae, 96-well plate; settings: 4000 ppm DMSO master solution diluted, about 1 day-old larvae, room temperature, scored after 3 days
Procedure: Certain molecules disclosed in this document were tested against YFM using procedures described in the following paragraph. In the reporting of the results, the “YFM Rating Table” was used (See Table Section).
Master plates containing 400 μg of a molecule dissolved in 100 μL of dimethyl sulfoxide (DMSO) (equivalent to a 4000 ppm solution) are used. A master plate of assembled molecules contains 15 μL per well. To this plate, 135 μL of a 90:10 water/acetone mixture is added to each well. A robot (Biomek® NXP Laboratory Automation Workstation) is programmed to dispense 15 μL aspirations from the master plate into an empty 96-well shallow plate (“daughter” plate). There are 6 reps (“daughter” plates) created per master. The created “daughter” plates are then immediately infested with YFM larvae.
The day before plates are to be treated, mosquito eggs are placed in Millipore water containing liver powder to begin hatching (4 g into 400 mL). After the “daughter” plates are created using the robot, they are infested with 220 μL of the liver powder/larval mosquito mixture (about 1 day-old larvae). After plates are infested with mosquito larvae, a non-evaporative lid is used to cover the plate to reduce drying. Plates are held at room temperature for 3 days prior to grading. After 3 days, each well is observed and scored based on mortality. The results are indicated in the table entitled “Table ABC: Biological Results” (See Table Section).

Compound | mortality at 50 µg/cm2 [1] [%] | mortality at 50 µg/cm2 [2] [%] | YFM rating, % Control (or Mortality) [3]
Cc1ccc(N2CCN/C2=N\C(=O)Nc2ccc(-c3ncn(-c4ccc(OC(F)(F)F)cc4)n3)cc2)c(C)c1 [F15, (E)-1-(1-(2.4-dimethylphenyl)imidazolidin-2-ylidene)-3-(4-(1-(4-(trifluoromethoxy)phenyl)-1H-1,2,4-triazol-3-yl)phenyl)urea] | 50 to 100 | 50 to 100 | A (80-100)
COc1ccc(N/C(N)=N/C(=O)Nc2ccc(-c3ncn(-c4ccc(OC(F)(F)F)cc4)n3)cc2)c(C)c1 [F9, (1E)-1-[Amino-(4-methoxy-2-methyl-anilino)methylene]-3-[4-[1-[4-(trifluoromethoxy)phenyl]-1H-1,2,4-triazol-3-yl]phenyl]urea] | 50 to 100 | 50 to 100 | A (80-100)
N/C(=N\C(=O)Nc1ccc(-c2ncn(-c3ccc(OC(F)(F)F)cc3)n2)cc1)Nc1ccccc1-c1ccccc1 [F1, (1E)-1-[Amino-(2-phenylanilino)methylene]-3-[4-[1-[4-(trifluoromethoxy)phenyl]-1H-1,2,4-triazol-3-yl]phenyl]urea] | 50 to 100 | 50 to 100 | A (80-100)
Cc1ccc(N/C(N)=N/C(=O)Nc2ccc(-c3ncn(-c4ccc(OC(F)(F)F)cc4)n3)cc2)c(C)c1 [F8, (1E)-1-[Amino-(2,4-dimethylanilino)methylene]-3-[4-[1-[4-(trifluoromethoxy)phenyl]-1H-1,2,4-triazol-3-yl]phenyl]urea] | 50 to 100 | 50 to 100 | A (80-100)
CCCc1ccccc1N/C(N)=N/C(=O)Nc1ccc(-c2ncn(-c3ccc(OC(F)(F)F)cc3)n2)cc1 [F6, (1E)-1-[Amino-(2-propylanilino)methylene]-3-[4-[1-[4-(trifluoromethoxy)phenyl]-1H-1,2,4-triazol-3-yl]phenyl]urea] | 50 to 100 | 50 to 100 | A (80-100)
COc1ccccc1N1CCN/C1=N\C(=O)Nc1ccc(-c2ncn(-c3ccc(OC(F)(F)F)cc3)n2)cc1 [F18, (E)-1-(1-(2-Methoxyphenyl)imidazolidin-2-ylidene)-3-(4-(1-(4-(trifluoromethoxy)phenyl)-1H-1,2,4-triazol-3-yl)phenyl)urea] | 50 to 100 | 50 to 100 | A (80-100)
Cc1ccccc1N/C(N)=N/C(=O)Nc1ccc(-c2ncn(-c3ccc(OC(F)(F)F)cc3)n2)cc1 [F5, (1E)-1-[Amino-(2-methylanilino)methylene]-3-[4-[1-[4-(trifluoromethoxy)phenyl]-1H-1,2,4-triazol-3-yl]phenyl]urea] | 50 to 100 | 50 to 100 | A (80-100)
Cc1ccc(F)cc1N1CCN/C1=N\C(=O)Nc1ccc(-c2ncn(-c3ccc(OC(F)(F)F)cc3)n2)cc1 [F13, (E)-1-(1-(5-Fluoro-2-methylphenyl)imidazolidin-2-ylidene)-3-(4-(1-(4-(trifluoromethoxy)phenyl)-1H-1,2,4-triazol-3-yl)phenyl)urea] | 50 to 100 | 50 to 100 | D (No activity noticed in this bioassay)
Cc1cccc(C)c1N/C(N)=N/C(=O)Nc1ccc(-c2ncn(-c3ccc(OC(F)(F)F)cc3)n2)cc1 [F11, (1E)-1-[amino-(2,6-dimethylanilino)methylene]-3-[4-[1-[4-(trifluoromethoxy)phenyl]-1H-1,2,4-triazol-3-yl]phenyl]urea] | 50 to 100 | – | –
O=C(/N=C1\NCCN1c1ccccc1OC(F)(F)F)Nc1ccc(-c2ncn(-c3ccc(OC(F)(F)F)cc3)n2)cc1 [F19, (E)-1-(4-(1-(4-(Trifluoromethoxy)phenyl)-1H-1,2,4-triazol-3-yl)phenyl)-3-(1-(2-(trifluoromethoxy)phenyl)imidazolidin-2-ylidene)urea] | 0 to 50 | 50 to 100 | D (No activity noticed in this bioassay)
CC(C)c1ccccc1N/C(N)=N/C(=O)Nc1ccc(-c2ncn(-c3ccc(OC(F)(F)F)cc3)n2)cc1 [F10, (1E)-1-[Amino-(2-isopropylanilino)methylene]-3-[4-[1-[4-(trifluoromethoxy)phenyl]-1H-1,2,4-triazol-3-yl]phenyl]urea] | 50 to 100 | 50 to 100 | A (80-100)
N/C(=N\C(=O)Nc1ccc(-c2ncn(-c3ccc(OC(F)(F)F)cc3)n2)cc1)Nc1ccccc1Cc1ccccc1 [F2, (1E)-1-[Amino-(2-benzylanilino)methylene]-3-[4-[1-[4-(trifluoromethoxy)phenyl]-1H-1,2,4-triazol-3-yl]phenyl]urea] | 50 to 100 | 50 to 100 | A (80-100)
COc1ccc(N2CCN/C2=N\C(=O)Nc2ccc(-c3ncn(-c4ccc(OC(F)(F)F)cc4)n3)cc2)cc1 [F21, (E)-1-(1-(4-Methoxyphenyl)imidazolidin-2-ylidene)-3-(4-(1-(4-(trifluoromethoxy)phenyl)-1H-1,2,4-triazol-3-yl)phenyl)urea] | 50 to 100 | 50 to 100 | A (80-100)
O=C(/N=C1\NCCN1c1ccccc1)Nc1ccc(-c2ncn(-c3ccc(OC(F)(F)F)cc3)n2)cc1 [F16, (E)-1-(1-Phenylimidazolidin-2-ylidene)-3-(4-(1-(4-(trifluoromethoxy)phenyl)-1H-1,2,4-triazol-3-yl)phenyl)urea] | 50 to 100 | 50 to 100 | A (80-100)
CCc1ccccc1N1CCN/C1=N\C(=O)Nc1ccc(-c2ncn(-c3ccc(OC(F)(F)F)cc3)n2)cc1 [F14, (E)-1-(1-(2-Ethylphenyl)imidazolidin-2-ylidene)-3-(4-(1-(4-(trifluoromethoxy)phenyl)-1H-1,2,4-triazol-3-yl)phenyl)urea] | 50 to 100 | 50 to 100 | A (80-100)
Cc1cc(C)c(N2CCN/C2=N\C(=O)Nc2ccc(-c3ncn(-c4ccc(OC(F)(F)F)cc4)n3)cc2)c(C)c1 [F17, (E)-1-(1-Mesitylimidazolidin-2-ylidene)-3-(4-(1-(4-(trifluoromethoxy)phenyl)-1H-1,2,4-triazol-3-yl)phenyl)urea] | 50 to 100 | 50 to 100 | A (80-100)
COc1cccc(N2CCN/C2=N\C(=O)Nc2ccc(-c3ncn(-c4ccc(OC(F)(F)F)cc4)n3)cc2)c1 [F20, (E)-1-(1-(3-Methoxyphenyl)imidazolidin-2-ylidene)-3-(4-(1-(4-(trifluoromethoxy)phenyl)-1H-1,2,4-triazol-3-yl)phenyl)urea] | 50 to 100 | 50 to 100 | A (80-100)
Cc1cc(Cl)ccc1N1CCN/C1=N\C(=O)Nc1ccc(-c2ncn(-c3ccc(OC(F)(F)F)cc3)n2)cc1 [F12, (E)-1-(1-(4-Chloro-2-methylphenyl)imidazolidin-2-ylidene)-3-(4-(1-(4-(trifluoromethoxy)phenyl)-1H-1,2,4-triazol-3-yl)phenyl)urea] | 0 to 50 | 50 to 100 | D (No activity noticed in this bioassay)
